This is an account of results in US20160287589A1, “SUBSTITUTED-IMIDAZOPYRIDAZINES” (BAYER PHARMA AKTIENGESELLSCHAFT, priority 2013, published 2016).

Assay [1] concerns the target T1, MKNK1 (Homo sapiens, UniProt Q9BUB5, T385D).
T1 construct: GST (N); purchased Carna Biosciences 02-145; host or cells: insect cells (baculovirus expression system)
The assay can be described thus: MKNK1 kinase assay (MKNK1 TR-FRET assay). The class given is biochemical. Particulars: 10 μM ATP, 15 min preincubation. From the text: MKNK1-inhibitory activity of compounds of the present invention was quantified employing the MKNK1 TR-FRET assay as described in the following paragraphs.
A recombinant fusion protein of Glutathione-S-Transferase (GST, N-terminally) and human full-lengt MKNK1 (amino acids 1-424 and T344D of accession number BAA 19885.1), expressed in insect cells using baculovirus expression system and purified via glutathione sepharose affinity chromatography, was purchased from Carna Biosciences (product no 02-145) and used as enzyme. As substrate for the kinase reaction the biotinylated peptide biotin-Ahx-IKKRKLTRRKSLKG (C-terminus in amide form) was used which can be purchased e.g. form the company Biosyntan (Berlin-Buch, Germany).
For the assay 50 nL of a 100 fold concentrated solution of the test compound in DMSO was pipetted into a black low volume 384 well microtiter plate (Greiner Bio-One, Frickenhausen, Germany), 2 μL of a solution of MKNK1 in aqueous assay buffer [50 mM HEPES pH 7.5, 5 mM magnesium chloride, 1.0 mM dithiothreitol, 0.005% (v/v) Nonidet-P40 (Sigma)] was added and the mixture was incubated for 15 min at 22° C. to allow pre-binding of the test compounds to the enzyme before the start of the kinase reaction. […] The concentration of MKNK1 was adjusted depending of the activity of the enzyme lot and was chosen appropriate to have the assay in the linear range, typical concentrations were in the range of […]. The reaction was stopped by the addition of 5 μL of a solution of TR-FRET detection reagents (5 nM streptavidine-XL665 [Cisbio Bioassays, Codolet, France] and 1 nM anti-ribosomal protein S6 (pSer236)-antibody from Invitrogen [#44921G] and 1 nM LANCE EU-W1024 labeled ProteinG [Perkin-Elmer, product no. AD0071]) in an aqueous EDTA-solution (100 mM EDTA, 0.1% (w/v) bovine serum albumin in 50 mM HEPES pH 7.5).
(§1) The resulting mixture was incubated for 1 h at 22° C. to allow the formation of complex between the phosphorylated biotinylated peptide and the detection reagents. Subsequently the amount of phosphorylated substrate was evaluated by measurement of the resonance energy transfer from the Eu-chelate to the streptavidine-XL. Therefore, the fluorescence emissions at 620 nm and 665 nm after excitation at 350 nm were measured in a TR-FRET reader, e.g. a Rubystar (BMG Labtechnologies, Offenburg, Germany) or a Viewlux (Perkin-Elmer). The ratio of the emissions at 665 nm and at […] was taken as the measure for the amount of phosphorylated substrate. The data were normalised (enzyme reaction without inhibitor=0% inhibition, all other assay components but no enzyme=100% inhibition).
(TR-FRET usually uses a lanthanide donor and a delayed reading to cut background.)

For assay [2], the target named is T1, MKNK1. The assay can be described thus: MKNK1 kinase high ATP assay (TR-FRET-based). The class given is biochemical. Particulars: 2 mM ATP, 15 min preincubation. As to the method: MKNK1 Kinase High ATP Assay
MKNK1-inhibitory activity at high ATP of compounds of the present invention after their preincubation with MKNK1 was quantified employing the TR-FRET-based MKNK1 high ATP assay as described in the following paragraphs.
A recombinant fusion protein of Glutathione-S-Transferase (GST, N-terminally) and human full-length MKNK1 (amino acids 1-424 and T344D of accession number BAA 19885.1), expressed in insect cells using baculovirus expression system and purified via glutathione sepharose affinity chromatography, was purchased from Carna Biosciences (product no 02-145) and used as enzyme. As substrate for the kinase reaction the biotinylated peptide biotin-Ahx-IKKRKLTRRKSLKG (C-terminus in amide form) was used, which can be purchased e.g. from the company Biosyntan (Berlin-Buch, Germany).
For the assay 50 nL of a 100 fold concentrated solution of the test compound in DMSO was pipetted into a black low volume 384 well microtiter plate (Greiner Bio-One, Frickenhausen, Germany), 2 μL of a solution of MKNK1 in aqueous assay buffer [50 mM HEPES pH 7.5, 5 mM magnesium chloride, 1.0 mM dithiothreitol, 0.005% (v/v) Nonidet-P40 (Sigma)] was added and the mixture was incubated for 15 min at 22° C. to allow pre-binding of the test compounds to the enzyme before the start of the kinase reaction. Then the kinase reaction was started by the addition of 3 μL of a solution of adenosine-tri-phosphate (ATP, 3.3 mM=>final conc. in the 5 μL assay volume is 2 mM) and substrate (0.1 μM=>final conc. in the 5 μL assay volume is 0.06 μM) in assay buffer and the resulting mixture was incubated for a reaction time of 30 min at 22° C. The concentration of MKNK1 was adjusted depending of the activity of the enzyme lot and was chosen appropriate to have the assay in the linear range, typical concentrations were in the range of 0.003 μg/mL. The reaction was stopped by the addition of 5 μL of a solution of TR-FRET detection reagents (5 nM streptavidine-XL665 [Cisbio Bioassays, Codolet, France] and 1 nM anti-ribosomal protein S6 (pSer236)-antibody from Invitrogen [#44921G] and 1 nM LANCE EU-W1024 labeled ProteinG [Perkin-Elmer, product no. AD0071]) in an aqueous EDTA-solution (100 mM EDTA, 0.1% (w/v) bovine serum albumin in 50 mM HEPES pH 7.5).
as §1

The IC50 is the point on the concentration scale where inhibition reaches its midpoint. A low value points to greater potency in that assay.

T1 sequence (Q9BUB5 1-424 isoform Q9BUB5-2 T344D): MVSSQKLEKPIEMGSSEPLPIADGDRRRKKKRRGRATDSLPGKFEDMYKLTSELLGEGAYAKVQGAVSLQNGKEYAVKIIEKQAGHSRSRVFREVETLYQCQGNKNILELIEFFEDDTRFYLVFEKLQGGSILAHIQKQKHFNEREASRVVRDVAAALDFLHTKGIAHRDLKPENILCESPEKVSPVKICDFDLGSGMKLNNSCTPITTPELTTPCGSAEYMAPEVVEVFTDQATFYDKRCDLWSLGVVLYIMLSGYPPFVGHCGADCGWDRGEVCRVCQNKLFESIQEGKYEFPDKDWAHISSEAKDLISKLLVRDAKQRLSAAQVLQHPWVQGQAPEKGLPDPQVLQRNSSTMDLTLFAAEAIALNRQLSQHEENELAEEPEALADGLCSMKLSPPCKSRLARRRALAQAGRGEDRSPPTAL

On to `CC(=O)N1CCC[C@H]1CCOc1ccc2ncc(-c3cc4ccccc4o3)n2n1` [Example I-2, 1-[(2S)-2-(2-{[3-(1-Benzofuran-2-yl)imidazo[1,2-b]pyridazin-6-yl]oxy}ethyl)-pyrrolidin-1-yl]ethanone], for which the IC50 on MKNK1 [1] (Table 1a) is 1.8 nM; on MKNK1 [2] (Table 2a), 3.1 nM. At MKNK1 [1] (Table 1b), `C[C@@H]1CNCCN1c1cccc2oc(-c3cnc4ccc(OC[C@@H]5CCC(=O)N5)nn34)cc12` [II-62, (5S)-5-{[(3-{4-[(2R)-2-methylpiperazin-1-yl]-1-benzofuran-2-yl}imidazo[1,2-b]pyridazin-6-yl)oxy]methyl}pyrrolidin-2-one] returned an IC50 of 5.1 nM. Take `CC(C)(C)C(=O)N1CCC[C@H]1CCOc1ccc2ncc(-c3cc4ccccc4o3)n2n1` [Example I-46, 1-[(2S)-2-(2-{[3-(1-Benzofuran-2-yl)imidazo[1,2-b]-pyridazin-6-yl]oxy}ethyl)pyrrolidin-1-yl]-2,2-dimethylpropan-1-one]: the IC50 against MKNK1 [1] (Table 1a) turned out to be 1.2 nM; against MKNK1 [2] (Table 2a) it was 1.9 nM.

As to `CN1CCN(c2cccc3oc(-c4cnc5ccc(OC[C@H]6CCC(=O)N6)nn45)cc23)CC1` [II-18, (5R)-5-[({3-[4-(4-Methylpiperazin-1-yl)-1-benzofuran-2-yl]imidazo[1,2-b]-pyridazin-6-yl}oxy)methyl]pyrrolidin-2-one], the IC50 against MKNK1 [1] (Table 1b) and on MKNK1 [2] (Table 2b) was 0.4 nM throughout.

In the case of `c1cc(N2CCOCC2)c2cc(-c3cnc4ccc(O[C@@H]5CCNC5)nn34)oc2c1` [II-13, 3-[4-(Morpholin-4-yl)-1-benzofuran-2-yl]-6-[(3R)-pyrrolidin-3-yloxy]imidazo[1,2-b]pyridazine], the IC50 at MKNK1 [1] (Table 1b) was determined as 39 nM; against MKNK1 [2] (Table 2b), 58 nM. Take `CCN(CCOC)c1nccc2oc(-c3cnc4ccc(OC[C@H]5CNCC(=O)N5)nn34)cc12` [III-90, (6R)-6-{[(3-{4-[Ethyl(2-methoxyethyl)amino]furo[3,2-c]pyridin-2-yl}imidazo[1,2-b]pyridazin-6-yl)oxy]methyl}piperazin-2-one]: the half-inhibitory concentration (IC50) on MKNK1 [1] (Table 1c) came out at 0.8 nM; at MKNK1 [2] (Table 2c) it was 0.5 nM. In the same order, the values of `C[C@H](N)COc1ccc2ncc(-c3cc4c(N(C)CCCN5CCCC5)nccc4o3)n2n1` [III-12, 2-(6-{[(2S)-2-Aminopropyl]oxy}imidazo[1,2-b]pyridazin-3-yl)-N-methyl-N-[3-(pyrrolidin-1-yl)propyl]furo[3,2-c]pyridin-4-amine] are 8.6 nM and 43.1 nM.

In the case of `C[C@H](N)COc1ccc2ncc(-c3cc4c(N5CCOC[C@@H]5C)cccc4o3)n2n1` [II-31, (2S)-1-[(3-{4-[(3S)-3-methylmorpholin-4-yl]-1-benzofuran-2-yl}imidazo[1,2-b]pyridazin-6-yl)oxy]propan-2-amine], the values for the IC50 against MKNK1 [1] (Table 1b) and at MKNK1 [2] (Table 2b) were 24.2 nM and 35.5 nM, respectively. On to `COc1ccc2oc(-c3cnc4ccc(OCCN5CCNC5=O)nn34)cc2c1` [Example I-33, 1-(2-{[3-(5-Methoxy-1-benzofuran-2-yl)imidazo[1,2-b]pyridazin-6-yl]oxy}ethyl)imidazolidin-2-one], for which the IC50 came to 15.5 nM on MKNK1 [1] (Table 1a) and 40.5 nM on MKNK1 [2] (Table 2a). Turning to `CN1CCC(N(C)c2nccc3oc(-c4cnc5ccc(O[C@H]6C[C@H](N)C6)nn45)cc23)CC1` [III-100, 2-{6-[(trans-3-Aminocyclobutyl)oxy]imidazo[1,2-b]pyridazin-3-yl}-N-methyl-N-(1-methylpiperidin-4-yl)furo[3,2-c]pyridin-4-amine], the concentration for half-maximal inhibition (IC50) was determined as 5.7 nM at MKNK1 [1] (Table 1c) and 45.8 nM at MKNK1 [2] (Table 2c). In the case of `C[C@H]1COCCN1c1cccc2oc(-c3cnc4ccc(OC[C@H]5CCC(=O)N5)nn34)cc12` [II-32, (5R)-5-{[(3-{4-[(3S)-3-methylmorpholin-4-yl]-1-benzofuran-2-yl}imidazo[1,2-b]pyridazin-6-yl)oxy]methyl}pyrrolidin-2-one], the IC50 on MKNK1 [1] (Table 1b) came to 4.4 nM; against MKNK1 [2] (Table 2b), 8.1 nM. With `O=C1NCCC1Oc1ccc2ncc(-c3cc4ccccc4o3)n2n1` (centres unmarked) [Example I-38, 3-{[3-(1-Benzofuran-2-yl)imidazo[1,2-b]pyridazin-6-yl]oxy}pyrrolidin-2-one], the IC50 was determined as 64 nM against MKNK1 [1] (Table 1a) and 71.7 nM against MKNK1 [2] (Table 2a).

Regarding `C[C@H](N)COc1ccc2ncc(-c3cc4c(N5CCCCC5)nccc4o3)n2n1` [III-9, (2S)-1-({3-[4-(Piperidin-1-yl)furo[3,2-c]pyridin-2-yl]imidazo[1,2-b]pyridazin-6-yl}oxy)propan-2-amine], the values for the IC50 against MKNK1 [1] (Table 1c) and on MKNK1 [2] (Table 2c) were 10.6 nM and 20.4 nM, respectively. On to `COc1ccc2ncc(-c3cc4c(N5CCN(c6ccccc6)CC5)cccc4o3)n2n1` [II-22, 6-Methoxy-3-[4-(4-phenylpiperazin-1-yl)-1-benzofuran-2-yl]imidazo[1,2-b]-pyridazine], for which the IC50 on MKNK1 [1] (Table 1b) is 371 nM; against MKNK1 [2] (Table 2b) it was 422 nM.

For `CCN(CCOC)c1nccc2oc(-c3cnc4ccc(OCCCS(C)(=O)=O)nn34)cc12` [III-50, N-Ethyl-N-(2-methoxyethyl)-2-{6-[3-(methylsulfonyl)propoxy]imidazo[1,2-b]pyridazin-3-yl}furo[3,2-c]pyridin-4-amine], the figures for the half-inhibitory concentration (IC50) at MKNK1 [1] (Table 1c) and against MKNK1 [2] (Table 2c) were 1.4 nM and 0.5 nM, respectively.

Regarding `CC1(C)CN(c2nccc3oc(-c4cnc5ccc(OC[C@H]6CCC(=O)N6)nn45)cc23)CCO1` [III-142, (5R)-5-[({3-[4-(2,2-dimethylmorpholin-4-yl)furo[3,2-c]pyridin-2-yl]imidazo[1,2-b]pyridazin-6-yl}oxy)methyl]pyrrolidin-2-one], the figures for the IC50 on MKNK1 [1] (Table 1c) and against MKNK1 [2] (Table 2c) were 1.6 nM and 0.5 nM, respectively. For the compound `O=C(c1ccc[nH]1)N1CCC[C@H]1CCOc1ccc2ncc(-c3cc4ccccc4o3)n2n1` [Example I-61, [(2S)-2-(2-{[3-(1-Benzofuran-2-yl)imidazo[1,2-b]-pyridazin-6-yl]oxy}ethyl)pyrrolidin-1-yl](1H-pyrrol-2-yl)methanone], the IC50 against MKNK1 [1] (Table 1a) is 2.9 nM; at MKNK1 [2] (Table 2a), 6.7 nM.

At MKNK1 [1] (Table 1b), `CC1(C)CN(c2cccc3oc(-c4cnc5ccc(O[C@H]6C[C@H](N)C6)nn45)cc23)CCO1` [II-66, trans-3-({3-[4-(2,2-dimethylmorpholin-4-yl)-1-benzofuran-2-yl]imidazo[1,2-b]pyridazin-6-yl}oxy)cyclobutanamine] registered an IC50 of 27.3 nM. The same measure, in the same setting: the value for `C[C@@H]1CNCCN1c1cccc2oc(-c3cnc4ccc(OCC(F)(F)F)nn34)cc12` [II-64, 3-{4-[(2R)-2-methylpiperazin-1-yl]-1-benzofuran-2-yl}-6-(2,2,2-trifluoroethoxy)im-idazo[1,2-b]pyridazine] was 9.3 nM.
